Data on 1 compound can be found in patent USRE50663E1, “Heterocycle derivatives as pesticides” (Bayer Aktiengesellschaft, priority 2017, dated 2025).

Format in all cases: in vivo
Experiment [1] concerns caterpillars of the cotton bollworm (Heliothis armigera). Kind of experiment: Comparative Heliothis armigera spray test (HELIAR). To be noted: Helicoverpa armigera, 168 h, 7 dat, read-out: % efficacy. The procedure:
(§1) Solvent: 14 parts by weight of dimethylformamide
(§2) Emulsifier: alkylaryl polyglycol ether
(§3) To produce a suitable active compound formulation, 1 part by weight of active compound is dissolved with the specified parts by weight of solvent and made up to the desired concentration with water containing an emulsifier concentration of 1000 ppm. To produce further test concentrations, the formulation is diluted with emulsifier-containing water. If the addition of ammonium salts or/and penetrants is required, these are each added in a concentration of 1000 ppm to the formulation solution.
Cotton plants (Gossypium hirsutum) are sprayed with an active compound formulation of the desired concentration and, after drying, populated with caterpillars of the cotton bollworm (Heliothis armigera).
(§4) After the desired time, the kill in % is determined. 100% means that all caterpillars have been killed; 0% means that none of the caterpillars have been killed.

Experiment [2] deals with larvae of the mustard beetle (Phaedon cochleariae). In words: Phaedon cochleariae spray test. The note with it: foliar, 168 h, 100 g/ha, after 7 days, Chinese cabbage leaf discs, read-out: efficacy. An outline of the steps: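 Chinese cabbage leaf discs sprayed with compound formulated in acetone/DMF and emulsifier-containing water, then infested with mustard beetle larvae after drying. Efficacy (% larvae killed) scored after 7 days.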

Experiment [3] concerns larvae of the diamondback moth (Plutella xylostella). In words: Comparative Plutella xylostella spray test (PLUTMA). To be noted: 168 h, 7 dat, read-out: % efficacy. The procedure:
as §1, §2, §3
Cabbage leaves (Brassica oleracea) are sprayed with an active ingredient formulation of the desired concentration and infected with larvae of the diamondback moth (Plutella xylostella).
as §4

Experiment [4] deals with southern root-knot nematode (Meloidogyne incognita). In words: Meloidogyne incognita test. The note with it: 20 ppm, after 14 days, lettuce. The procedure:
Solvent: 125.0 parts by weight of acetone
To produce a suitable active compound formulation, 1 part by weight of active compound is mixed with the stated amount of solvent and the concentrate is diluted to the desired concentration with water.
Vessels are filled with sand, active compound solution, an egg/larvae suspension of the southern root-knot nematode (Meloidogyne incognita) and lettuce seeds. The lettuce seeds germinate and the plants develop. The galls develop on the roots.
After 14 days, the nematicidal efficacy in % is determined by the formation of galls. 100% means that no galls were found; 0% means that the number of galls on the treated plants corresponds to the untreated control.

In experiment [5] the test system is caterpillars of the fall armyworm (Spodoptera frugiperda). Kind of experiment: Spodoptera frugiperda spray test. The note with it: foliar, 168 h, 100 g/ha, after 7 days, maize leaf discs, read-out: efficacy. In short, it runs like this: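 Maize leaf discs sprayed with compound formulated in acetone/dimethylformamide and diluted in water with 1000 ppm alkylaryl polyglycol ether emulsifier, then infested with fall armyworm caterpillars once dry. Efficacy read after 7 days as % caterpillars killed (100% = all dead, 0% = none).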

For experiment [6], the system named is adult cat fleas (Ctenocephalides felis). In words: Ctenocephalides felis in vitro contact test with adult cat fleas. The note with it: application rate 5 μg/cm^2 (=500 g/ha), after 48 h, dead or moribund fleas. The procedure: (§5) For the coating of the test tubes, 9 mg of active compound are first dissolved in 1 ml of acetone p.a. and then diluted to the desired concentration with acetone p.a. 250 μl of the solution are distributed homogeneously on the inner walls and the base of a 25 ml glass tube by turning and rocking on an orbital shaker (rocking rotation at 30 rpm for 2 h). With 900 ppm of active compound solution and internal surface area 44.7 cm^2, given homogeneous distribution, an area-based dose of 5 μg/cm^2 is achieved.
After the solvent has evaporated off, the tubes are populated with 5-10 adult cat fleas (Ctenocephalides felis), sealed with a perforated plastic lid and incubated in a horizontal position at room temperature and ambient humidity. After 48 h, efficacy is determined. To this end, the tubes are stood upright and the fleas are knocked to the base of the tube. Fleas which remain motionless at the base or move in an uncoordinated manner are considered to be dead or moribund.
100% efficacy means that all the fleas were dead or moribund. 0% efficacy means that no fleas were harmed.

Experiment [7] shares this test system. Kind of experiment: Ctenocephalides felis oral test. The note with it: 48 h, 100 ppm in citrated cattle blood, after 2 days, read-out: efficacy (kill). An outline of the steps:
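Test compound in DMSO, diluted in citrated cattle blood to the test concentration and offered to ~20 unfed adults through a parafilm membrane. Kill % scored after 2 days (100% = all fleas dead, 0% = none).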

Experiment [8] relates to adult dog ticks (Rhipicephalus sanguineus). In words: Rhipicephalus sanguineus in vitro contact test with adult brown dog ticks. The note with it: application rate 5 μg/cm^2, after 48 h, dead or moribund ticks. The procedure:
as §5
After the solvent has evaporated off, the tubes are populated with 5-10 adult dog ticks (Rhipicephalus sanguineus), sealed with a perforated plastic lid and incubated in a horizontal position in the dark at room temperature and ambient humidity. After 48 h, efficacy is determined. To this end, the ticks are knocked to the base of the tube and incubated on a hotplate at 45-50° C. for not more than 5 min. Ticks which remain motionless on the base or move in such an uncoordinated manner that they are unable to deliberately avoid the heat by climbing upwards are considered to be dead or moribund.
An efficacy of 100% means that all the ticks were dead or moribund. 0% efficacy means that none of the ticks were harmed.

Experiment [9] deals with green peach aphid (Myzus persicae). Kind of experiment: Comparative Myzus persicae drench test (MYZUPE D). To be noted: soil, 240 h, 10 dat, read-out: % efficacy. The procedure:
Solvent: 7 parts by weight of dimethylformamide
Emulsifier: 2 parts by weight of alkylaryl polyglycol ether
To produce a suitable active ingredient formulation, 1 part by weight of active ingredient is mixed with the specified amounts of solvent and emulsifier, and the concentrate is diluted with water to the desired concentration, it being necessary to take into account the volume of soil which is drenched. It should be ensured that a concentration of 40 ppm of emulsifier in the soil is not exceeded. To produce further test concentrations, water is used for dilution.
Savoy cabbage (Brassica oleracea) in pots with soil and infested by all stages of the green peach aphid (Myzus persicae) is watered with an active ingredient formulation of the desired concentration.
After the desired period of time, the efficacy in % is determined. 100% means that all the aphids have been killed; 0% means that no aphids have been killed.

Experiment [10] relates to caterpillars of the armyworm (Spodoptera frugiperda). In words: Comparative Spodoptera frugiperda spray test (SPODFR). The note with it: 168 h, 7 dat, read-out: % efficacy. The procedure: as §1, §2, §3
Cotton leaves (Gossypium hirsutum) are sprayed with an active ingredient formulation of the desired concentration and populated with caterpillars of the armyworm (Spodoptera frugiperda).
as §4

`CCS(=O)(=O)c1c(-c2nc3cc(C(F)(F)F)cnc3n2C)nc2cc(C3(C#N)CC3)ccn12` [Example I-11, 1-{3-(Ethylsulfonyl)-2-[3-methyl-6-(trifluoromethyl)-3H-imidazo[4,5-b]pyridin-2-yl]imidazo[1,2-a]pyridin-7-yl}cyclopropanecarbonitrile]: the Emax at 0.16 ppm in [1], in experiment [3] and in [10] was 100% in each case. Also, the pest or weed control at 100 g/ha in experiment [2] and in experiment [5] was 100% throughout. The “nematicidal efficacy (formation of galls)” value in [4] is 100%. Besides, the efficacy in [6] and in experiment [8] was 100% throughout. Also, the pest or weed control at 100 ppm in experiment [7] was 100%. The Emax at 0.8 ppm in [9] amounted to 95%.
